Assay results taken from ChEMBL document CHEMBL1201862, “PubChem BioAssay data set” (2004).
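Tested at 5 concentrations; 48 h exposure; 96-well plates; endpoints linearly interpolated, else capped at highest concentration. Here, GI50 denotes the concentration required for 50% inhibition of growth.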 Calls of active or inactive are those of the source. Cut-off read from the data, not from the text of the source: active = GI50 up to about 1.1 µM and inactive = higher.

How the values were obtained:
Experiment in all cases: NCI-60 cell line screen, 48 h
SF-268 = test system: SF-268
A549 = test system: A549
NCI/ADR-RES = test system: NCI/ADR-RES
NCI-H226 = test system: NCI-H226
HL-60 = test system: HL-60
SF-295 = test system: SF-295
UACC-62 = test system: UACC-62
HOP-62 = test system: HOP-62
M19-MEL = test system: M19-MEL
NCI-H522 = test system: NCI-H522
SNB-75 = test system: SNB-75
OVCAR-4 = test system: OVCAR-4
MOLT-4 = test system: MOLT-4
MCF7 = test system: MCF7
OVCAR-5 = test system: OVCAR-5
RXF 393 = test system: RXF 393
LXFL 529 = test system: LXFL 529
TK-10 = test system: TK-10
SR = test system: SR
RXF 631 = test system: RXF 631

| SMILES | GI50 (SF-268) | GI50 (A549) | GI50 (NCI/ADR-RES) | GI50 (NCI-H226) | GI50 (HL-60) | GI50 (SF-295) | GI50 (UACC-62) | GI50 (HOP-62) | GI50 (M19-MEL) | GI50 (NCI-H522) | GI50 (SNB-75) | GI50 (OVCAR-4) | GI50 (MOLT-4) | GI50 (MCF7) | GI50 (OVCAR-5) | GI50 (RXF 393) | GI50 (LXFL 529) | GI50 (TK-10) | GI50 (SR) | GI50 (RXF 631) |
| --- | --- | --- | --- | --- | --- | --- | --- | --- | --- | --- | --- | --- | --- | --- | --- | --- | --- | --- | --- | --- |
| CC(=O)OC1C=C(C=O)C(O)(C=O)C2(C)CCCC(C)(C)C12 (stereo not drawn) | 2.42 µM (inactive) | 4.54 µM (inactive) | 1.8 µM (inactive) | 2.69 µM (inactive) | 0.249 µM (active) | 3.07 µM (inactive) | 2.76 µM (inactive) | 6.38 µM (inactive) | 1.23 µM (inactive) | 0.456 µM (active) | 2.4 µM (inactive) | 1.33 µM (inactive) | 0.37 µM (active) | 1.89 µM (inactive) | 4.55 µM (inactive) | 0.491 µM (active) | – | – | – | – |
| CC(C)=CCc1c(O)ccc2ccc(=O)oc12 [OSTHENOL] | 33.7 µM (inactive) | 5.83 µM (inactive) | 20.9 µM (inactive) | 47.6 µM (inactive) | 28.2 µM (inactive) | 45.6 µM (inactive) | 44.6 µM (inactive) | – | 47.1 µM (inactive) | 48.2 µM (inactive) | 54.5 µM (inactive) | 37.8 µM (inactive) | 26.9 µM (inactive) | 34.9 µM (inactive) | > 31.6 µM (inactive) | 38.5 µM (inactive) | – | – | – | – |
| COC(=O)[C@@H](O)[C@](O)(CCC(C)C)C(=O)O[C@@H]1C(OC)=C[C@]23CCCN2CCc2cc4c(cc2[C@H]13)OCO4 | 0.984 µM (active) | 0.951 µM (active) | 11.8 µM (inactive) | 1.64 µM (inactive) | 0.349 µM (active) | 1.53 µM (inactive) | 3.9 µM (inactive) | 0.575 µM (active) | 1.18 µM (inactive) | 0.598 µM (active) | 1.62 µM (inactive) | 1.06 µM (active) | 0.32 µM (active) | 0.351 µM (active) | 3.24 µM (inactive) | 0.689 µM (active) | – | – | – | – |
| COc1ccc(C2C(=O)C(Cl)N2Nc2nc(C)cc(O)n2)cc1OC (stereo not drawn) | 17.9 µM (inactive) | 59.7 µM (inactive) | – | – | 13.9 µM (inactive) | – | 28.4 µM (inactive) | 23.6 µM (inactive) | 42.3 µM (inactive) | – | 8.13 µM (inactive) | 30.8 µM (inactive) | 18.7 µM (inactive) | – | > 100 µM (inactive) | 25.2 µM (inactive) | 41.3 µM (inactive) | 43.6 µM (inactive) | 18.8 µM (inactive) | – |
| CCCOC(=O)CNC(=O)OC(C)(C)C | > 100 µM (inactive) | > 100 µM (inactive) | – | > 100 µM (inactive) | > 100 µM (inactive) | > 100 µM (inactive) | > 100 µM (inactive) | > 100 µM (inactive) | > 100 µM (inactive) | > 100 µM (inactive) | > 100 µM (inactive) | > 100 µM (inactive) | – | – | > 100 µM (inactive) | > 100 µM (inactive) | > 100 µM (inactive) | > 100 µM (inactive) | > 100 µM (inactive) | > 100 µM (inactive) |
| CCCCCCCCC1=CCC(CN(C)C)C1=O (stereo not drawn) | 18.3 µM (inactive) | > 100 µM (inactive) | 20.5 µM (inactive) | > 51.4 µM (inactive) | 12 µM (inactive) | > 42.1 µM (inactive) | 18.1 µM (inactive) | > 31.6 µM (inactive) | 17.8 µM (inactive) | 16.7 µM (inactive) | 17.7 µM (inactive) | 23.6 µM (inactive) | 19 µM (inactive) | 4.69 µM (inactive) | 33.3 µM (inactive) | 19.7 µM (inactive) | – | – | – | – |
| NC(=O)C(=O)N/N=C1/c2ccccc2CC1C1(O)C(=O)Nc2c(Cl)cc(Cl)cc21 (stereo not drawn) | > 100 µM (inactive) | 69.7 µM (inactive) | – | > 100 µM (inactive) | > 100 µM (inactive) | > 100 µM (inactive) | > 100 µM (inactive) | > 100 µM (inactive) | > 100 µM (inactive) | 61.4 µM (inactive) | 97.3 µM (inactive) | > 100 µM (inactive) | > 100 µM (inactive) | – | > 100 µM (inactive) | 92 µM (inactive) | – | > 100 µM (inactive) | 70.3 µM (inactive) | – |
| Cc1cc2cccc(Cl)c2nc1C(=O)c1ccccc1 | > 100 µM (inactive) | > 100 µM (inactive) | – | > 100 µM (inactive) | – | 18.9 µM (inactive) | > 100 µM (inactive) | 44.1 µM (inactive) | > 100 µM (inactive) | 41.2 µM (inactive) | 17.1 µM (inactive) | 86.3 µM (inactive) | – | – | > 100 µM (inactive) | 26.6 µM (inactive) | > 100 µM (inactive) | > 100 µM (inactive) | > 100 µM (inactive) | 89.3 µM (inactive) |
| Cn1ncc2c(=O)[nH]c(-c3ccccc3)nc21 | > 100 µM (inactive) | > 100 µM (inactive) | – | – | > 100 µM (inactive) | > 100 µM (inactive) | > 100 µM (inactive) | – | – | > 100 µM (inactive) | > 100 µM (inactive) | > 100 µM (inactive) | > 100 µM (inactive) | – | > 100 µM (inactive) | > 100 µM (inactive) | – | > 100 µM (inactive) | – | > 100 µM (inactive) |
| CCOC(=O)C1C(c2cc(OC)c(O)c(OC)c2)c2cc3c(cc2OC1(C)O)OCO3 (stereo not drawn) | – | 45.6 µM (inactive) | – | – | > 100 µM (inactive) | 35.2 µM (inactive) | 43.9 µM (inactive) | 14.3 µM (inactive) | 66.4 µM (inactive) | – | 16.5 µM (inactive) | 57.8 µM (inactive) | 35 µM (inactive) | – | – | – | – | > 100 µM (inactive) | – | 75.9 µM (inactive) |
| CC(C)C1=CC2=CC[C@@H]3[C@](C)(CCC[C@@]3(C)C(=O)O)[C@H]2CC1 [ABIETIC ACID] | > 69 µM (inactive) | 50.6 µM (inactive) | – | 49.2 µM (inactive) | > 50.5 µM (inactive) | 37.8 µM (inactive) | 36.3 µM (inactive) | > 67.8 µM (inactive) | 59 µM (inactive) | 45.7 µM (inactive) | 55.8 µM (inactive) | 59.6 µM (inactive) | 40.2 µM (inactive) | – | > 75.5 µM (inactive) | > 62.1 µM (inactive) | 64.3 µM (inactive) | > 66.4 µM (inactive) | > 100 µM (inactive) | 62.8 µM (inactive) |
